The term IC50 denotes the midpoint of a concentration-inhibition curve. By EC50 is commonly meant the concentration that produces a half-maximal response.

A value given as a limit tells only on which side of the number the result lay.

For series [1], the system named is Murine coronavirus. Kind of series: Antiviral activity against mCoV-68 infected in african green monkey Vero cells incubated for 7 days by counting number of plaque by crystal violet staining method. Type of series: functional, organism-based. The note with it: Murine coronavirus, 68, Vero, 168 h.
A short description of series [2]: Cytotoxicity against mouse NIH3T3 cells. Type of series: toxicity, cell-based.
For series [3], the system named is Murine coronavirus. Kind of series: Antiviral activity against MHV. The class given is functional, organism-based.
Series [4] concerns Zika virus. In words: microbe, parasite or virus in culture.
The nature of series [5]: Cytotoxicity against human astrocyte cells. Type of series: toxicity, cell-based.
Series [6] concerns the target Cyclin-dependent kinase 2 (Homo sapiens, UniProt P24941).
The nature of series [7]: Cytotoxicity against human JEG-3 cells. The class given is toxicity, cell-based.
A further series deals with Aurora kinase B (Homo sapiens, UniProt Q96GD4). In words: Inhibition of aurora B kinase (unknown origin).
Chain of Aurora kinase B (Q96GD4 whole entry): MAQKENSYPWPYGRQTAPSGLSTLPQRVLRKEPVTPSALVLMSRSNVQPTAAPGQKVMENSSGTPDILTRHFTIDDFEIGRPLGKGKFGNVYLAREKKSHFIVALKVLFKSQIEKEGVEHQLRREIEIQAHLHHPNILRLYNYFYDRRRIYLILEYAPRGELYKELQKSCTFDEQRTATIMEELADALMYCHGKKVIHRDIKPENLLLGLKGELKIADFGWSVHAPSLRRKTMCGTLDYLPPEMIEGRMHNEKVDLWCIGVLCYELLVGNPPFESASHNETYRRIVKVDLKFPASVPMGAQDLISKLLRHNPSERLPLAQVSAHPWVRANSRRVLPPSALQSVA
Series [8] in a line: in vitro. The following applies: human, u-937.
A short description of series [9]: in vitro. The note with it: human, jurkat.
The nature of series [10]: in vitro. The note with it: human, ccrf-cem.
Series [11] has as its system Marburgvirus. In words: microbe, parasite or virus in culture. The note with it: Orthomarburgvirus. Type of series: functional, organism-based.
For a further series, the system named is Lassa virus. In words: microbe, parasite or virus in culture. Type of series: functional, organism-based. The following applies: Mammarenavirus lassaense, A549.
Series [12] has as its system Zika virus. In words: Antiviral activity against ZIKV-PRVABC59 infected in human Huh-7 cells measured after 24 hrs. The class given is functional, organism-based. The following applies: PRVABC59, Huh-7, 24 h.
The test system of series [13] is Zika virus. Kind of series: Antiviral activity against ZIKV-PRVABC59 infected in Neuronal cell line measured after 24 hrs. The class given is functional, organism-based.
The test system of series [14] is Ebolavirus. In words: microbe, parasite or virus in culture. The note with it: Orthoebolavirus, Huh-7. The class given is functional, organism-based.
The test system of series [15] is Nipah virus. Kind of series: microbe, parasite or virus in culture. The following applies: Henipavirus nipahense. The class given is functional, organism-based.
Series [16] has as its system Nipah virus. Kind of series: microbe, parasite or virus in culture. The class given is functional, organism-based, HEK293T. The following applies: Henipavirus nipahense, HEK-293T.
Series [17] in a line: in vitro. The note with it: human, Huh-7 cells.
Series [18] relates to Marburgvirus. In words: microbe, parasite or virus in culture. The class given is functional, organism-based. The following applies: Orthomarburgvirus, Huh-7.
For series [19], the system named is Ebolavirus. In words: microbe, parasite or virus in culture. Type of series: functional, organism-based. The note with it: Orthoebolavirus.
Series [20] is described as follows: Cytotoxicity against HEK cells. Type of series: toxicity, cell-based. The following applies: human.
For series [21], the system named is Human alphaherpesvirus 1. Kind of series: microbe, parasite or virus in culture. Type of series: functional, organism-based.
Series [22] can be described thus: in vitro. The note with it: human, HeLa cells.
For the next series, the system named is Human alphaherpesvirus 2. In words: Antiviral activity against HSV-2 assessed as reduction in virus titre at 10 uM relative to control. Type of series: functional. Also noted: scale not given: the % may be the effect or the level left.
The nature of series [23]: Cytotoxicity against human HCE cells. Type of series: toxicity, cell-based.
In series [24] the target is Inhibitor of nuclear factor kappa-B kinase subunit epsilon (Homo sapiens, UniProt Q14164). Kind of series: Inhibition of IKK epsilon (unknown origin).
Chain of Inhibitor of nuclear factor kappa-B kinase subunit epsilon (Q14164 whole entry): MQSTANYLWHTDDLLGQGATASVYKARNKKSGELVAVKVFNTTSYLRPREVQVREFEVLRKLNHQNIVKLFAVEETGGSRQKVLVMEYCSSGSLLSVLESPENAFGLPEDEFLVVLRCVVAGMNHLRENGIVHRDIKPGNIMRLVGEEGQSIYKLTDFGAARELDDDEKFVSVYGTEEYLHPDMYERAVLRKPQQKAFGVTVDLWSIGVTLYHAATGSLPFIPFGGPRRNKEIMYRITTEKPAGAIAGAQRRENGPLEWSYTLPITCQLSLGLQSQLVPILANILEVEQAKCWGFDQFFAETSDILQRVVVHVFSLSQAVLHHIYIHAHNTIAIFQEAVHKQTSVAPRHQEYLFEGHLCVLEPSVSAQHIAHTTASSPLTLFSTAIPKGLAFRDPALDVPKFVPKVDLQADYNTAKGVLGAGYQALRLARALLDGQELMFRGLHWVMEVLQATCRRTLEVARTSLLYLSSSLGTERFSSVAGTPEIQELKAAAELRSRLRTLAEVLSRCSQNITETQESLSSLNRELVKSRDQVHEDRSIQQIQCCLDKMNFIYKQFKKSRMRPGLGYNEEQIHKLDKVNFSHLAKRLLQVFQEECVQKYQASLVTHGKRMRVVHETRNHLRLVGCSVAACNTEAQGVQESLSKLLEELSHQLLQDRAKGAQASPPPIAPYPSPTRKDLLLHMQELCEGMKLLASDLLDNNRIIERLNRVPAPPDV
Series [25] has as its system Pichinde virus. Kind of series: Antiviral activity against PICV assessed as reduction of viral growth at 50 uM. The class given is functional. On the set-up: scale not given: the % may be the effect or the level left.
Series [26] is described as follows: in vitro. The note with it: chlorocebus sabaeus, Vero cells.
The next series relates to Hepatitis B virus. Kind of series: microbe, parasite or virus in culture. The class given is functional, organism-based. The note with it: Hepatitis B virus.
The subject of series [27] is Human alphaherpesvirus 1. Kind of series: Antiviral activity against HSV-1 infected in african green monkey Vero cells assessed as inhibition of cytopathic effect at 50 uM. Type of series: functional. On the set-up: scale not given: the % may be the effect or the level left. (Damage to the host cells serves as the signal in cytopathic effect assays.)
Series [28] concerns Human alphaherpesvirus 1. In words: Antiviral activity against HSV-1 assessed as reduction of viral growth at 50 uM. The class given is functional. On the set-up: scale not given: the % may be the effect or the level left.
The test system of series [29] is Pichinde virus. In words: Antiviral activity against PICV infected in african green monkey Vero cells assessed as reduction in viral titre at 100 uM relative to control. The class given is functional. Also noted: scale not given: the % may be the effect or the level left.
In series [30] the test system is Human immunodeficiency virus 1. Kind of series: Antiviral activity against HIV-1 assessed as reduction of viral growth at 50 uM. On the set-up: scale not given: the % may be the effect or the level left. The class given is functional.
Series [31] has as its target Protein kinase C beta type (Homo sapiens, UniProt P05771). In words: Inhibition of PKCbeta2 (unknown origin).
Series [32] relates to Influenza A virus. In words: Antiviral activity against influenza A virus assessed as log reduction of virus at 5 to 10 uM. The class given is functional. The note with it: dose 5-10 µM.
Another series relates to Influenza B virus. In words: Antiviral activity against influenza B virus assessed as log reduction of virus at 5 to 10 uM. The following applies: dose 5-10 µM. Type of series: functional.
The nature of series [33]: Cytotoxicity against human MCF7 cells. The class given is toxicity, cell-based.
Series [34] in a line: Cytotoxicity against human HL-60 cells. Type of series: toxicity, cell-based.
The next series deals with Human coronavirus 229E. In words: Antiviral activity against HCoV-229E assessed as reduction of viral RNA level at 4 uM relative control. Type of series: functional. Also noted: scale not given: the % may be the effect or the level left.
Series [35] can be described thus: in vitro. The following applies: human, l132.
Series [36] can be described thus: Inhibition of PDGF (unknown origin). Also noted: species or system Homo sapiens.
Series [37] can be described thus: Cytotoxicity against golden hamster BSR cells. The class given is toxicity, cell-based, Mesocricetus auratus.
The test system of series [38] is Transmissible gastroenteritis virus. Kind of series: Antiviral activity against TGEV assessed as reduction in virus titre at 4 uM. Type of series: functional.
The subject of series [39] is Influenza A virus. In words: Antiviral activity against influenza A virus infected in human A549 cells assessed as inhibition of viral replication at 4 uM relative to control. Type of series: functional. Also noted: scale not given: the % may be the effect or the level left.
For series [40], the system named is Transmissible gastroenteritis virus. Kind of series: Antiviral activity against TGEV assessed as log reduction in virus progeny at 4 uM. The class given is functional.
A short description of series [41]: Cytotoxicity against pig PK-15 cells. The class given is toxicity, cell-based, Sus scrofa.
For series [42], the system named is Feline infectious peritonitis virus. In words: Antiviral activity against FIPV assessed as log reduction in virus progeny at 4 uM. The class given is functional.
In a further series the test system is Lyssavirus rabies. In words: microbe, parasite or virus in culture. Type of series: functional, organism-based.
Series [43] concerns Murine coronavirus. Kind of series: Antiviral activity against MHV assessed as log reduction in virus progeny at 4 uM. Type of series: functional.
Series [44] has as its system Porcine epidemic diarrhea virus. Kind of series: Antiviral activity against PEDV assessed as log reduction in virus progeny at 4 uM. The class given is functional.

Chain of Protein kinase C beta type (P05771 whole entry): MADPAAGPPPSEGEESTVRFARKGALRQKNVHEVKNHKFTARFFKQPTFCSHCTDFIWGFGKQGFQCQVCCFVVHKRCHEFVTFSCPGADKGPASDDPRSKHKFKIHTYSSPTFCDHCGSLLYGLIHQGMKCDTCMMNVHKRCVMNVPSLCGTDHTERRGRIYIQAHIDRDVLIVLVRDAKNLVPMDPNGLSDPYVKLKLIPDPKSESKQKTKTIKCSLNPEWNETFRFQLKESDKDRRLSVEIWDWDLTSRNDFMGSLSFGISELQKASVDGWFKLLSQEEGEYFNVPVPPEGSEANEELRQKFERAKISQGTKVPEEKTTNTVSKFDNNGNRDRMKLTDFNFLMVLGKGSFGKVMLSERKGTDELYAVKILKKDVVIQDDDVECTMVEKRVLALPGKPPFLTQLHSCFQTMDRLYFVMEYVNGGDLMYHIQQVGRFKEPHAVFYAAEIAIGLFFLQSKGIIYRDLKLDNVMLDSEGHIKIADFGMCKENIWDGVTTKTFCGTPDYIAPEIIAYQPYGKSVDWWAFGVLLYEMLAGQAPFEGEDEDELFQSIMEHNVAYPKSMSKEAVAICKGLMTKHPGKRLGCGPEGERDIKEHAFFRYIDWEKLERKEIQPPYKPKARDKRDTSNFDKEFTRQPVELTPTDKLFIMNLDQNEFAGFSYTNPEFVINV

With `CC(C)=CCC[C@](C)(O)C1CC[C@]2(C)[C@@H]1[C@H](O)C[C@@H]1[C@@]3(C)CC[C@H](O[C@@H]4O[C@H](CO)[C@@H](O)[C@H](O)[C@H]4O[C@@H]4O[C@H](CO)[C@@H](O)[C@H](O)[C@H]4O)C(C)(C)[C@@H]3CC[C@]12C` (some centres undefined), the half-inhibitory concentration (IC50) in the series on Murine coronavirus [1] and in the series with Murine coronavirus [3] was 10 µM each time. In series [2], this compound returned a CC50 greater than 50 µM.

`CCCc1cnc(NC(=O)[C@@H](C)c2ccc(NC(C)=O)cc2)s1`: the IC50 in the series with Zika virus [4] amounted to 0.09 µM; in series [6] it was 0.031 µM. Moreover, the CC50 in [5] is greater than 10 µM.

On to `c1cncc(CN2CCC(n3ncc4c(N5CCOCC5)nc(-c5ccc6[nH]ccc6c5)nc43)CC2)c1`, for which, in the series on Zika virus [4], a half-maximal effect (EC50) was put at 2.28 µM and it took 2.3 µM to reach half-maximal inhibition (IC50). In series [7], this compound showed a CC50 greater than 10 µM. Also, the midpoint of inhibition against Aurora kinase B, the IC50, lay at 0.25 µM.

Take `O=C1Cc2c([nH]c3ccc([N+](=O)[O-])cc23)-c2ccccc2N1` [ALSTERPAULLONE]: the CC50 in “in vitro [8]”, in “in vitro [9]” and in “in vitro [10]” was greater than 1 µM throughout.

Turning to `NCC(=O)Nc1ccc(-n2nc(C(F)(F)F)cc2-c2ccc3c(ccc4ccccc43)c2)cc1` [AR-12], the IC50 was less than 2 µM in the series with Zika virus [4], 2 µM in the series on Zika virus [12] and 2 µM in the series with Zika virus [13]. The concentration giving a half-maximal response (EC50) with Marburgvirus [11] was determined as 0.3 µM; with Lassa virus, 0.5 µM; with Ebolavirus [14], 0.3 µM; in the series with Nipah virus [15], 0.3 µM; in the series with Nipah virus [16], 0.3 µM; in the series with Marburgvirus [18] it was 0.3 µM. For the same compound, the concentration giving a half-maximal response (EC50) in the series with Ebolavirus [19] came out at 0.3 µM. The CC50 in “in vitro [17]” was greater than 10 µM.

Take `O=C(NCCCNc1nc(Nc2cccc(NC(=O)N3CCCC3)c2)ncc1I)c1cccs1` [BX-795]: the CC50 (in [20]; in the series “in vitro [22]”; in series [23]) was 46 µM in each case. The compound also gave an EC50 in the series with Human alphaherpesvirus 1 [21] of 10 µM. In addition, in the series on Human alphaherpesvirus 2, the Activity is greater than 90%. In series [24], this compound returned an IC50 of 0.041 µM.

Consider `O=c1c(-c2ccc(O)cc2)coc2cc(O)cc(O)c12` [GENISTEIN], for which the Activity is listed as greater than 50% in the series with Pichinde virus [25]; 11% in the series with Human alphaherpesvirus 1 [27]; greater than 50% with Human alphaherpesvirus 1 [28]; 90% with Pichinde virus [29]; greater than 50% in series [30]. Further, the CC50 in “in vitro [26]” was greater than 50 µM. This compound returned an EC50 with Hepatitis B virus of 33 µM.

With `O=C1NC(=O)C(c2c[nH]c3ccccc23)=C1c1c[nH]c2ccccc12` [RO-316233], the IC50 in series [31] was found to be 0.016 µM. Further, the “log(activity)” value in the series with Influenza A virus [32] and with Influenza B virus was 1 throughout. Further, the CC50 in series [33] and in series [34] was greater than 8 µM throughout.

As to `C[S+]([O-])c1ccc(-c2nc(-c3ccc(F)cc3)c(-c3ccncc3)[nH]2)cc1` (centres undefined) [SB-203580], the Activity in the series with Human coronavirus 229E turned out to be 60%. In “in vitro [35]”, this compound showed a CC50 greater than 10 µM.

Turning to `CC(C)(C)c1cc(C=C(C#N)C#N)cc(C(C)(C)C)c1O` [TYRPHOSTIN A9], the 50% inhibitory concentration (IC50) in [36] was 0.5 µM. Moreover, the CC50 in series [37] was 150 µM; in series [41], greater than 6 µM. The “log(activity)” value in [38] was determined as 3; in [40], 2.3; in series [42], 2.3; in the series with Murine coronavirus [43] it was 2.3; in [44], 2.3. Further, the Activity with Influenza A virus [39] came to 50%. The compound also showed an EC50 with Lyssavirus rabies of 0.9 µM.

Values taken from ChEMBL document CHEMBL5131375, “Recent Developments in the Use of Kinase Inhibitors for Management of Viral Infections” (J Med Chem, 2022).
